According to patent US5110800A, “Derivatives of erythromycylamine” (Eli Lilly and Company, priority 1989, dated 1992):
In brackets after ≈: the same amount, converted by molar mass. Where two headings read alike, the source gives them in different places.

Columns and labels:
Experiment in all cases: MIC, standard agar-dilution assay
Assay type in all cases: cell-based
[1] = system: Staphylococcus aureus X400; settings: Staphylococcus aureus
Excerpt: (§1) In addition to excellent in vitro activity against erythromycin-sensitive bacteria, several members of this new series have shown in vitro activity against erythromycin-resistant strains. These include strains which are inducibly-resistant to erythromycin (S. aureus V41 and X400 and S. epidermidis EPI1) and even strains which are constitutively-resistant (S. epidermidis 270).

[2] = system: Staphylococcus epidermidis 270; settings: Staphylococcus epidermidis, 270; Table IV; constitutively erythromycin-resistant; read-out: minimal inhibitory concentration (MIC)
Excerpt: as §1

[3] = system: Staphylococcus aureus V41; settings: Staphylococcus aureus
Excerpt: as §1

Escherichia coli EC14 = settings: Escherichia coli
[4] = system: Klebsiella pneumoniae X68; settings: Klebsiella pneumoniae, X68, agar dilution, read-out: minimal inhibitory concentration (MIC)
[5] = system: Haemophilus influenzae C.L.; settings: Haemophilus influenzae, read-out: minimal inhibitory concentration (MIC)
[6] = system: Streptococcus sp. group D 2041; settings: Streptococcus, read-out: minimal inhibitory concentration (MIC)
[7] = system: Staphylococcus epidermidis 222; settings: Staphylococcus epidermidis, 222, read-out: minimal inhibitory concentration (MIC)
[8] = system: Staphylococcus aureus X1.1; settings: Staphylococcus aureus, X1.1, read-out: minimal inhibitory concentration (MIC)
[9] = system: Streptococcus sp. group D X66; settings: Streptococcus, read-out: minimal inhibitory concentration (MIC)
[10] = system: Streptococcus pyogenes C203; settings: Streptococcus pyogenes, C203, read-out: minimal inhibitory concentration (MIC)
[11] = X400, Table IV, methicillin-resistant strain, inducibly erythromycin-resistant, read-out: minimal inhibitory concentration (MIC)
[12] = V41, Table IV, penicillin-resistant strain, inducibly erythromycin-resistant, read-out: minimal inhibitory concentration (MIC)
[13] = EC14, Table IV, agar dilution, read-out: minimal inhibitory concentration (MIC)
[14] = EC14, read-out: minimal inhibitory concentration (MIC)

| SMILES | MIC [1, 11] | MIC [2] | MIC [3, 12] | MIC ([4]; Table IV) | further results |
| --- | --- | --- | --- | --- | --- |
| CCN[C@@H]1[C@H](C)[C@@H](O)[C@](C)(O)[C@@H](CC)OC(=O)[C@H](C)[C@@H](O[C@H]2C[C@@](C)(OC)[C@@H](O)[C@H](C)O2)[C@H](C)[C@@H](O[C@@H]2O[C@H](C)C[C@H](N(C)C)[C@H]2O)[C@](C)(O)C[C@H]1C [Compound 2, (9S)-9-Deoxo-9-(ethylamino)erythromycin] | > 128 µg/mL | > 128 µg/mL | > 128 µg/mL |  |  |
| CCCCCCCCN[C@@H]1[C@H](C)[C@@H](O)[C@](C)(O)[C@@H](CC)OC(=O)[C@H](C)[C@@H](O[C@H]2C[C@@](C)(OC)[C@@H](O)[C@H](C)O2)[C@H](C)[C@@H](O[C@@H]2O[C@H](C)C[C@H](N(C)C)[C@H]2O)[C@](C)(O)C[C@H]1C [Compound 8, 9-Deoxo-9-(n-octylamino)erythromycin] |  |  |  | > 128 µg/mL | MIC (Escherichia coli EC14; [13]): > 128 µg/mL |
| CCCN[C@@H]1[C@H](C)[C@@H](O)[C@](C)(O)[C@@H](CC)OC(=O)[C@H](C)[C@@H](O[C@H]2C[C@@](C)(OC)[C@@H](O)[C@H](C)O2)[C@H](C)[C@@H](O[C@@H]2O[C@H](C)C[C@H](N(C)C)[C@H]2O)[C@](C)(O)C[C@H]1C [Compound 3, 9-Deoxo-9-(n-propylamino)erythromycin] | > 128 µg/mL | > 128 µg/mL | > 128 µg/mL |  |  |
| CC[C@H]1OC(=O)[C@H](C)[C@@H](O[C@H]2C[C@@](C)(OC)[C@@H](O)[C@H](C)O2)[C@H](C)[C@@H](O[C@@H]2O[C@H](C)C[C@H](N(C)C)[C@H]2O)[C@](C)(O)C[C@@H](C)[C@H](NCCOCCOC)[C@H](C)[C@@H](O)[C@]1(C)O [Compound 25, 9-Deoxo-9-[[2-(2-methoxyethoxy)ethyl]amino]erythromycin] | > 128 µg/mL | > 128 µg/mL | > 128 µg/mL |  |  |
| CC[C@H]1OC(=O)[C@H](C)[C@@H](O[C@H]2C[C@@](C)(OC)[C@@H](O)[C@H](C)O2)[C@H](C)[C@@H](O[C@@H]2O[C@H](C)C[C@H](N(C)C)[C@H]2O)[C@](C)(O)C[C@@H](C)[C@H](NCCC(C)C)[C@H](C)[C@@H](O)[C@]1(C)O [Compound 11, 9-Deoxo-9-[(3-methylbutyl)amino]erythromycin] | > 128 µg/mL | > 128 µg/mL | > 128 µg/mL |  |  |
| CCCCC/C=C/CCCN[C@@H]1[C@H](C)[C@@H](O)[C@](C)(O)[C@@H](CC)OC(=O)[C@H](C)[C@@H](O[C@H]2C[C@@](C)(OC)[C@@H](O)[C@H](C)O2)[C@H](C)[C@@H](O[C@@H]2O[C@H](C)C[C@H](N(C)C)[C@H]2O)[C@](C)(O)C[C@H]1C [Compound 14, 9-Deoxo-9-[(trans-dec-4-enyl)amino]erythromycin] |  |  |  | > 128 µg/mL | MIC (Escherichia coli EC14; [14]): 128 µg/mL (≈ 147 µM); MIC [5]: 2 µg/mL (≈ 2.29 µM); MIC [6]: 2 µg/mL (≈ 2.29 µM); MIC [7]: 0.25 µg/mL (≈ 0.286 µM); MIC [8]: 0.5 µg/mL (≈ 0.573 µM) |
| CCCCCCN[C@@H]1[C@H](C)[C@@H](O)[C@](C)(O)[C@@H](CC)OC(=O)[C@H](C)[C@@H](O[C@H]2C[C@@](C)(OC)[C@@H](O)[C@H](C)O2)[C@H](C)[C@@H](O[C@@H]2O[C@H](C)C[C@H](N(C)C)[C@H]2O)[C@](C)(O)C[C@H]1C [Compound 6, 9-Deoxo-9-(n-hexylamino)erythromycin] | > 128 µg/mL | > 128 µg/mL | > 128 µg/mL |  |  |
| CC[C@H]1OC(=O)[C@H](C)[C@@H](O[C@H]2C[C@@](C)(OC)[C@@H](O)[C@H](C)O2)[C@H](C)[C@@H](O[C@@H]2O[C@H](C)C[C@H](N(C)C)[C@H]2O)[C@](C)(O)C[C@@H](C)[C@H]2[C@H](C)[C@@H](OCN2Cc2ccccc2)[C@]1(C)O [Compound 62, 9-Deoxo-9-[(benzyl)amino]-9,11-(N,O)-cyclic Methylene Adduct of Erythromycin] |  |  |  |  | MIC (Escherichia coli EC14; EC14, Table V, agar dilution, read-out: minimal inhibitory concentration (MIC)): > 128 µg/mL; MIC ([4]; Table V): > 128 µg/mL |
| CCCCCCCN[C@@H]1[C@H](C)[C@@H](O)[C@](C)(O)[C@@H](CC)OC(=O)[C@H](C)[C@@H](O[C@H]2C[C@@](C)(OC)[C@@H](O)[C@H](C)O2)[C@H](C)[C@@H](O[C@@H]2O[C@H](C)C[C@H](N(C)C)[C@H]2O)[C@](C)(O)C[C@H]1C [Compound 7, 9-Deoxo-9-(n-heptylamino)erythromycin] | > 128 µg/mL | > 128 µg/mL | > 128 µg/mL | > 128 µg/mL |  |
| CC[C@H]1OC(=O)[C@H](C)[C@@H](O[C@H]2C[C@@](C)(OC)[C@@H](O)[C@H](C)O2)[C@H](C)[C@@H](O[C@@H]2O[C@H](C)C[C@H](N(C)C)[C@H]2O)[C@](C)(O)C[C@@H](C)[C@H](NCC2CC=CCC2)[C@H](C)[C@@H](O)[C@]1(C)O (stereo partly shown) [Compound 15, 9-Deoxo-9-[(1-cyclohex-4-enylmethyl)amino]erythromycin] | > 128 µg/mL | > 128 µg/mL | > 128 µg/mL |  |  |
| CC[C@H]1OC(=O)[C@H](C)[C@@H](O[C@H]2C[C@@](C)(OC)[C@@H](O)[C@H](C)O2)[C@H](C)[C@@H](O[C@@H]2O[C@H](C)C[C@H](N(C)C)[C@H]2O)[C@](C)(O)C[C@@H](C)[C@H](NCC#Cc2ccccc2)[C@H](C)[C@@H](O)[C@]1(C)O [Compound 18, 9-Deoxo-9-[(3-phenyl-2-propynyl)amino]erythromycin] |  |  |  | > 128 µg/mL | MIC (Escherichia coli EC14; [13]): > 128 µg/mL; MIC [9]: 0.25 µg/mL (≈ 0.294 µM); MIC [6]: 1 µg/mL (≈ 1.18 µM); MIC [7]: 0.5 µg/mL (≈ 0.589 µM); MIC [8]: 1 µg/mL (≈ 1.18 µM) |
| CC[C@H]1OC(=O)[C@H](C)[C@@H](O[C@H]2C[C@@](C)(OC)[C@@H](O)[C@H](C)O2)[C@H](C)[C@@H](O[C@@H]2O[C@H](C)C[C@H](N(C)C)[C@H]2O)[C@](C)(O)C[C@@H](C)[C@H](NCC(C)(C)CO)[C@H](C)[C@@H](O)[C@]1(C)O [Compound 22, 9-Deoxo-9-[(3-hydroxy-2,2-dimethylpropyl)amino]erythromycin] | > 128 µg/mL | > 128 µg/mL | > 128 µg/mL |  |  |
| CC[C@H]1OC(=O)[C@H](C)[C@@H](O[C@H]2C[C@@](C)(OC)[C@@H](O)[C@H](C)O2)[C@H](C)[C@@H](O[C@@H]2O[C@H](C)C[C@H](N(C)C)[C@H]2O)[C@](C)(O)C[C@@H](C)[C@H](NCCCCCO)[C@H](C)[C@@H](O)[C@]1(C)O [Compound 21, 9-Deoxo-9-[(5-hydroxypentyl)amino]erythromycin] | > 128 µg/mL | > 128 µg/mL | > 128 µg/mL |  |  |
| CC[C@H]1OC(=O)[C@H](C)[C@@H](O[C@H]2C[C@@](C)(OC)[C@@H](O)[C@H](C)O2)[C@H](C)[C@@H](O[C@@H]2O[C@H](C)C[C@H](N(C)C)[C@H]2O)[C@](C)(O)C[C@@H](C)[C@H]2[C@H](C)[C@@H](OCN2C(C)C)[C@]1(C)O [Compound 58, 9-Deoxo-9-[isopropylamino]-9,11-(N,O)-cyclic Methylene Adduct of Erythromycin] |  |  |  |  | MIC ([1]; X400, read-out: minimal inhibitory concentration (MIC)): > 128 µg/mL; MIC ([3]; V41, read-out: minimal inhibitory concentration (MIC)): > 128 µg/mL |
| CCC(CC)CN[C@@H]1[C@H](C)[C@@H](O)[C@](C)(O)[C@@H](CC)OC(=O)[C@H](C)[C@@H](O[C@H]2C[C@@](C)(OC)[C@@H](O)[C@H](C)O2)[C@H](C)[C@@H](O[C@@H]2O[C@H](C)C[C@H](N(C)C)[C@H]2O)[C@](C)(O)C[C@H]1C [Compound 12, 9-Deoxo-9-[(2-ethylbutyl)amino]erythromycin] |  | > 128 µg/mL |  |  |  |
| CC[C@H]1OC(=O)[C@H](C)[C@@H](O[C@H]2C[C@@](C)(OC)[C@@H](O)[C@H](C)O2)[C@H](C)[C@@H](O[C@@H]2O[C@H](C)C[C@H](N(C)C)[C@H]2O)[C@](C)(O)C[C@@H](C)[C@H](NCCCOC)[C@H](C)[C@@H](O)[C@]1(C)O [Compound 23, (9S)-9-Deoxo-9-[(3-methoxypropyl)amino]erythromycin] | > 128 µg/mL | > 128 µg/mL | > 128 µg/mL |  | MIC [9]: 0.25 µg/mL (≈ 0.31 µM); MIC [10]: 0.125 µg/mL (≈ 0.155 µM); MIC [6]: 8 µg/mL (≈ 9.91 µM); MIC [7]: 0.5 µg/mL (≈ 0.62 µM); MIC [8]: 2 µg/mL (≈ 2.48 µM) |
| CC[C@H]1OC(=O)[C@H](C)[C@@H](O[C@H]2C[C@@](C)(OC)[C@@H](O)[C@H](C)O2)[C@H](C)[C@@H](O[C@@H]2O[C@H](C)C[C@H](N(C)C)[C@H]2O)[C@](C)(O)C[C@@H](C)[C@H](NCCC(C)CCCC(C)(C)OC)[C@H](C)[C@@H](O)[C@]1(C)O (stereo partly shown) [Compound 24, 9-Deoxo-9-[(7-methoxy-3,7-dimethyloctyl)amino]erythromycin] |  | > 128 µg/mL |  | > 128 µg/mL | MIC (Escherichia coli EC14; [14]): 128 µg/mL (≈ 141 µM); MIC [10]: 0.015 µg/mL (≈ 0.0166 µM); MIC [6]: 2 µg/mL (≈ 2.21 µM); MIC [7]: 0.25 µg/mL (≈ 0.276 µM); MIC [8]: 0.5 µg/mL (≈ 0.552 µM) |
| CCCCC/C=C\CCCN[C@@H]1[C@H](C)[C@@H](O)[C@](C)(O)[C@@H](CC)OC(=O)[C@H](C)[C@@H](O[C@H]2C[C@@](C)(OC)[C@@H](O)[C@H](C)O2)[C@H](C)[C@@H](O[C@@H]2O[C@H](C)C[C@H](N(C)C)[C@H]2O)[C@](C)(O)C[C@H]1C [Compound 13] |  |  |  | > 128 µg/mL | MIC (Escherichia coli EC14; [14]): 128 µg/mL (≈ 147 µM); MIC [9]: 0.06 µg/mL (≈ 0.0687 µM); MIC [5]: 2 µg/mL (≈ 2.29 µM); MIC [8]: 0.25 µg/mL (≈ 0.286 µM) |
